Results from patent US20210363495A1, “CULTURE MEDIA FOR PLURIPOTENT STEM CELLS” (Yeda Research and Development Co. Ltd., priority 2019, published 2021).

Assays:
[1] = test system: Tet-OFF-METTL3 hESCs (WIBR3, clone W3G4); experiment: Pluripotency (OCT4+) maintenance of Tet-OFF-METTL3 hESCs in the presence of DOX; assay type: cell-based, human; details: for expanding METTL3 depleted cells when substituted for TNKi: optimized ENHSM conditions without TNKi, DOX up to 4 passages; for expansion of Tet-OFF-METTL3 on DOX: individual small molecule supplemented to NHSM, Geltrex coated plates, no MEFs
From the text: FIGS. 1A-I Defining enhanced human naive conditions compatible with expanding METTL3 depleted PSCs. A. Strategy for generating human ESCs with TET-OFF regulated expression of METTL3 m^6A methyltransferase enzyme. B. Western blot analysis for correctly engineered human ESCs with TET-OFF METTL3 regulation, before and after DOX treatment. C. Representative images for human METTL3 TET-OFF engineered cells in different conditions with or without DOX addition. […] D. Scheme depicting strategy for conducting a screen for identifying a small molecule or cytokine additive to previously described human naïve NHSM conditions that allow maintain pluripotency in TET-OFF METTL3 human stem cells after adding DOX. E. W3G4 cells were maintained in the presence of DOX for up to 4 passages in different conditions and stained for OCT4 to quantify percentage of cells that retained their pluripotency. […] F. OCT4+ pluripotency maintenance in NHSM conditions supplemented with various TNK inhibitors and DOX to repress METTL3 expression. G. Quantification of ΔPE-OCT4-GFP knock in naïve pluripotency reporter, in variety of primed (red) and naïve conditions (blue). Mean fluorescence intensity values (MFI) are indicated. H. Quantification of ΔPE-OCT4-GFP knock in naïve pluripotency reporter in variety of conditions with various concentrations of ACTIVIN A recombinant cytokine. […] I. Representative phase contrast images in human ESCs expanded in NHSM+TNKi conditions showing their maintenance of pluripotent domed-like morphology even in the presence of FGFRi.
In order to identify culture conditions which capture human naïve PSC, the present inventors looked for agents which are capable of maintaining stem cells in a pluripotent state in the absence of defined epigenetic repressors. Human knock-in WIBR3 hESC lines with conditional inducible ablation expression of METTL3 were engineered (FIG. 1A). This was carried out by introducing an exogenous METTL3 transgene under the regulation of Tet-OFF promoter (Liao et al., 2015), followed by CRISPR/Cas9 mediated ablation of both endogenous human METTL3 alleles. Two resultant clones were validated for METTL3 expression only from the exogenous allele, which can be shut off by addition of DOX to the media (called Tet-OFF-METTL3 lines) (FIG. 1B).
The latter further support rewiring toward naïve pluripotency in NHSM conditions. […] Candidate molecules were tested for the ability to enrich NHSM conditions that allow Tet-OFF-METTL3 to be maintained on Geltrex coated plates in the presence of DOX.
NHSM conditions were supplemented with individual small molecules (FIG. 1D). […] IWR1 is a WNT inhibitor (WNTi) small molecule that stabilizes AXIN protein in the cytoplasm by inhibiting Tankyrase enzyme (abbreviated herein as TNK inhibitor—TNKi).

human ESCs = experiment: Domed morphology under TGF/ACTIVIN signalling blockade; assay type: cell-based
From the text: FIGS. 1A-I Defining enhanced human naive conditions compatible with expanding METTL3 depleted PSCs. A. Strategy for generating human ESCs with TET-OFF regulated expression of METTL3 m^6A methyltransferase enzyme. B. Western blot analysis for correctly engineered human ESCs with TET-OFF METTL3 regulation, before and after DOX treatment. C. Representative images for human METTL3 TET-OFF engineered cells in different conditions with or without DOX addition. […] E. W3G4 cells were maintained in the presence of DOX for up to 4 passages in different conditions and stained for OCT4 to quantify percentage of cells that retained their pluripotency. […] G. Quantification of ΔPE-OCT4-GFP knock in naïve pluripotency reporter, in variety of primed (red) and naïve conditions (blue). Mean fluorescence intensity values (MFI) are indicated. H. Quantification of ΔPE-OCT4-GFP knock in naïve pluripotency reporter in variety of conditions with various concentrations of ACTIVIN A recombinant cytokine. […]
FIGS. 3A-I. Defining enhanced human naive conditions compatible with blocking TGF/ACTIVIN signaling. […] F. Mass spectrometry-based quantification of m^6A on isolated mRNA from the indicated cell lines and conditions. […]

[2] = test system: WIBR2 hESC carrying MECP2 fluorescent reporter alleles; experiment: X chromosome reactivation, MECP2 two-colour reporter FACS; assay type: cell-based, human; details: added to ENHSM without ERKi (0ENHSM) or with 0.33 microM ERKi (tENHSM)
From the text: FIGS. 17A-D. Chromosome X reactivation status and DNA methylation profile in ENHSM based conditions. A. Schematic and FACS results following using WIBR2 (person 46XX) 29-9 hESC line that carries GFP and mCherry on each of the X chromosomes in the MECP2 locus. Parental 29-9 clone has the X chromosome carrying mCherry allele in the active state, and thus is positive only for mCherry and negative for GFP in the primed state. Upon transfer to ENHSM conditions, all cells turn on both X chromosomes and thus become double positive for both fluorescent markers (GFP and mCherry). After transfer into primed conditions (i.e. repriming), cells start to inactivate the X chromosome again. B. RNA-FISH analysis for ATRX transcription in primed and ENHSM WIBR3 cells. Note ATRX is active on both X chromosomes only in ENHSM conditions. C. Western blot analysis for DNA methylation regulators, DNMT1 and UHRF enzymes. DNMT1 protein levels are maintained in all conditions. […] D. Global methylation histogram as calculated from primed samples, and naïve samples that were maintained in various conditions, including titrated ERKi supplementation, along with previously published Reset-naïve and primed samples (Takashima et al), and human ICM samples (Smith et al, Nature 2014, Guo et al, Nature 2014). […]

In the case of `COc1cccc(-c2cn(-c3ccc(CCN4CCC(O)CC4)cc3)c3ncnc(N)c23)c1` [CGP77675], the “maintenance of OCT4+ cells without ACTIVIN A” value ([1]; TNKi supplemented optimized NHSM, no ACTIVIN A, on DOX) is reported as “dramatically maintained the stability of dome like cells that were uniformly OCT4+”.

In the case of `Cc1cccc(-c2nn(C(=S)Nc3ccccc3)cc2-c2ccnc3ccccc23)n1` [Condition A83-01], the “domed morphology after TGFRi” value (human ESCs; cells in ENHSM) is reported as “maintained” and the “domed morphology after TGFRi” value (human ESCs; cells in NHSM+TNKi) is reported as “lose their pluripotent dome-like shaped morphology and differentiate”.

For `C[C@H](NC(=O)Cc1cc(F)cc(F)c1)C(=O)N[C@@H]1C(=O)N(C)c2ccccc2-c2ccccc21` [DBZ], the “maintenance of pre-X inactivation naïve state when ERKi is omitted or depleted” value [2] was “allowed robust and feeder free maintenance of human naïve cells”.

For `O=C1Cc2c([nH]c3ccc(Br)cc23)-c2ccccc2N1` [Kenpaullone], the “expanding METTL3 depleted cells when substituted for TNKi” value [1] was “none of them allowed expanding METTL3 depleted cells in vitro”.

For `CCCC(CCC)C(=O)O` [VPA], the “expanding METTL3 depleted cells when substituted for TNKi” value [1] was “none of them allowed expanding METTL3 depleted cells in vitro”.

`Oc1nc(-c2ccc(C(F)(F)F)cc2)nc2c1CSCC2` [XAV939] was tested, and the “expansion of Tet-OFF-METTL3 on DOX” value [1] was “yielded a similar effect”.

With `O=C(Nc1cccc2cccnc12)c1ccc(N2C(=O)[C@@H]3[C@H](C2=O)[C@H]2C=C[C@@H]3C2)cc1` [exo-IWR1] the “expansion of Tet-OFF-METTL3 on DOX” value [1] was “failed to do so”.

B1: ACTIVIN A: recombinant cytokine, activator of TGF/ACTIVIN pathway (protein)
chain: MPLLWLRGFLLASCWIIVRSSPTPGSEGHSAAPDCPSCALAALPKDVPNSQPEMVEAVKKHILNMLHLKKRPDVTQPVPKAALLNAIRKLHVGKVGENGYVEIEDDIGRRAEMNELMEQTSEIITFAESGTARKTLHFEISKEGSDLSVVERAEVWLFLKVPKANRTRTKVTIRLFQQQKHPQGSLDTGEEAEEVGLKGERSELLLSEKVVDARKSTWHVFPVSSSIQRLLDQGKSSLDVRIACEQCQESGASLVLLGKKKKKEEEGEGKKKGGGEGGAGADEEKEQSHRPFLMLQARQSEDHPHRRRRRGLECDGKVNICCKKQFFVSFKDIGWNDWIIAPSGYHANYCEGECPSHIAGTSGSSLSFHSTVINHYRMRGHSPFANLKSCCVPTKLRPMSMLYYDDGQNIIKKDIQNMIVEECGCS
modifications: homo sapiens
For B1, the “maintenance of pre-X inactivation naïve state when ERKi is omitted or depleted” value [2] was “did not block loss X reactivation”.
